The record followed here is patent publication US20250019382A1, “NOVEL INHIBITORS OF CYCLIN-DEPENDENT KINASES” (Origenis Gmbh, priority 2021, published 2025).

The target in one assay is T1, CDK9/CyclinT1 (Homo sapiens, UniProt P50750).
T1 construct: purchased ProQinase/Reaction Biology, USA #0371-0345-1
The assay is described as follows: CDK9/T1 ADPGlo kinase assay. In kind it is biochemical. Conditions: CDK9/CyclinT1 6 nM, ATP 10 microM, PDKtide 40 microM, 120 min RT. The method, boiled down: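 Human CDK9/CyclinT1 (6 nM final) was preincubated 10 min with compound (12-point 1:3 series from 5 μM), then reacted 120 min at RT with PDKtide (40 μM final) and ATP (10 μM final). ADP was read by ADP-Glo luminescence; IC50 from variable-slope sigmoidal fit.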

The target of assay [1] is T2, CDK2/cyclin A1 (Homo sapiens, UniProt P24941).
T2 construct: purchased Invitrogen Ltd., Paisley, UK (SelectScreen service)
The experiment in a line: CDK2/cyclin A1 LanthaScreen (SelectScreen). The format is binding. Particulars: first list; duplicate, averaged. As to the method: (§1) The CDK2 inhibitory activity of the compounds of the invention was measured in combination with different […] and assay systems. The SelectScreen™ assessment of the kinase inhibitory activity of CDK2 data point was performed in duplicate and averaged data is reported here. The SelectScreen™ kinase inhibitor assay service was used (Invitrogen Ltd., Paisley, UK) to investigate the ability of the compounds of the invention to inhibit CDK2 in dose dependent manner using ten inhibitor concentrations from 10 micromolar down to […] in half-logarithmic steps. The inhibitor concentration was plotted against the percent inhibition or displacement to determine the IC50 using XLFit 5.5 (IDBS, Guildford) to fit to a sigmoidal dose response curve with a variable slope.

For a further assay, the target named is T3, CDK2/cyclin A (Homo sapiens, UniProt P24941).
T3 construct: purchased Invitrogen Ltd., Paisley, UK (SelectScreen service)
The experiment in a line: CDK2/cyclin A Z'-LYTE (SelectScreen). In kind it is biochemical. Conditions: duplicate, averaged. The procedure: as §1

In another assay the target is T4, CDK2/cyclin E1 (Homo sapiens, UniProt P24941).
T4 construct: purchased Invitrogen Ltd., Paisley, UK (SelectScreen service)
The assay is described as follows: CDK2/cyclin E1 LanthaScreen (SelectScreen). The format is binding. Conditions: duplicate, averaged. The procedure: as §1

The target of assay [2] is T2, CDK2/cyclin A1. The assay is described as follows: CDK2/cyclin A1 LanthaScreen (SelectScreen), second list. In kind it is binding. Particulars: second list under the same heading; duplicate, averaged. As to the method: as §1

T1 sequence (P50750 whole entry): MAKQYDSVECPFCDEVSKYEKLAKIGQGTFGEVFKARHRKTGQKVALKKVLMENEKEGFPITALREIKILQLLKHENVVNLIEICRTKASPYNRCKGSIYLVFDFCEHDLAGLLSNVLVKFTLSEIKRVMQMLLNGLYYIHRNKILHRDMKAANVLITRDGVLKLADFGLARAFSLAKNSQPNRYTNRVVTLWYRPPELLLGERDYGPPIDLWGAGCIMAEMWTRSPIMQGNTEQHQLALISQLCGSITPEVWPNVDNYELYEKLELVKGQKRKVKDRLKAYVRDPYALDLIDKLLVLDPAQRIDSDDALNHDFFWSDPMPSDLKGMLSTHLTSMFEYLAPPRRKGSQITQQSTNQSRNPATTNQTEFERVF
T1 sequence (O60563 whole entry partner): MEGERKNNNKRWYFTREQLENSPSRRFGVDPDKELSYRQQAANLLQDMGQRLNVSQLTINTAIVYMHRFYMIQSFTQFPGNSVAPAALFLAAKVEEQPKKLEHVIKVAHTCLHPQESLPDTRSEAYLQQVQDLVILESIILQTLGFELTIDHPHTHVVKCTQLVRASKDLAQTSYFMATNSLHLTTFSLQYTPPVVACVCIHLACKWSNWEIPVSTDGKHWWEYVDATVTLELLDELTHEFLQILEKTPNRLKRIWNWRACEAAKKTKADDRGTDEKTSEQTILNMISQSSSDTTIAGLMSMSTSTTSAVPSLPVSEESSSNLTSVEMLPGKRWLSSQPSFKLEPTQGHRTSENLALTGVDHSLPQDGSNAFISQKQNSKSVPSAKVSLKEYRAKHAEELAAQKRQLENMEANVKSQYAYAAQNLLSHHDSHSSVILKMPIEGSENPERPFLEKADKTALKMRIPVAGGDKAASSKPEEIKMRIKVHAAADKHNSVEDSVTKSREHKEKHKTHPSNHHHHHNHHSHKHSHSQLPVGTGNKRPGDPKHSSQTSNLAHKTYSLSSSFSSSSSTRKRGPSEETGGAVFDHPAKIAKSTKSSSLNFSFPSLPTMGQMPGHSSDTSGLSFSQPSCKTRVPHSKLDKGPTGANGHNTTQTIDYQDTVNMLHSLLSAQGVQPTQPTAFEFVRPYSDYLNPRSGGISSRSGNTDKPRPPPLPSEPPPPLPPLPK

`Fc1cccc(F)c1-c1nc(N[C@H]2CC[C@H](N3CCOCC3)CC2)n2ncc(Cl)c2n1` [Example #89, 8-chloro-2-(2,6-difluorophenyl)-N-((1r,4r)-4-morpholinocyclohexyl)pyrazolo[1,5-a][1,3,5]triazin-4-amine]: the IC50 on CDK9/CyclinT1 is less than 20 nM; on CDK2/cyclin A1 [1] it was less than 1000 nM; on CDK2/cyclin A, less than 1000 nM; at CDK2/cyclin E1, less than 200 nM; on CDK2/cyclin A1 [2], less than 200 nM.

As to `N[C@H]1CC[C@H](Nc2nc(-c3c(F)cccc3F)nc3c(Cl)cnn23)CC1` [Example #108, (1r,4r)-N1-(8-chloro-2-(2,6-difluorophenyl)pyrazolo[1,5-a][1,3,5]triazin-4-yl)cyclohexane-1,4-diamine], the IC50 was less than 20 nM at CDK9/CyclinT1; less than 200 nM at CDK2/cyclin A1 [1]; less than 200 nM on CDK2/cyclin A; less than 200 nM on CDK2/cyclin E1; less than 20 nM on CDK2/cyclin A1 [2].

For the molecule `CN(C)[C@H]1CC[C@H](Nc2nc(-c3c(F)cccc3F)nc3c(Cl)cnn23)CC1` [Example #109, (1r,4r)-N1-(8-chloro-2-(2,6-difluorophenyl)pyrazolo[1,5-a][1,3,5]triazin-4-yl)-N4,N4-dimethylcyclohexane-1,4-diamine], the IC50 against CDK9/CyclinT1 was less than 20 nM; on CDK2/cyclin A1 [1], less than 1000 nM; at CDK2/cyclin A, less than 1000 nM; at CDK2/cyclin E1, less than 200 nM; at CDK2/cyclin A1 [2] it was less than 200 nM.

Turning to `Fc1cccc(F)c1-c1nc(N[C@H]2CC[C@H](N3CCCCC3)CC2)n2ncc(Cl)c2n1` [Example #110, 8-chloro-2-(2,6-difluorophenyl)-N-((1r,4r)-4-(piperidin-1-yl)cyclohexyl)pyrazolo[1,5-a][1,3,5]triazin-4-amine], the concentration for half-maximal inhibition (IC50) is less than 20 nM against CDK9/CyclinT1; less than 200 nM at CDK2/cyclin A1 [1]; less than 1000 nM on CDK2/cyclin A; less than 200 nM on CDK2/cyclin E1; less than 200 nM at CDK2/cyclin A1 [2].

Take `COCCNC1CCC(Nc2nc(-c3c(F)cccc3F)nc3c(Cl)cnn23)CC1` (stereo not shown) [Example #124, (1r,4r)-N1-(8-chloro-2-(2,6-difluorophenyl)pyrazolo[1,5-a][1,3,5]triazin-4-yl)-N4-(2-methoxyethyl)cyclohexane-1,4-diamine]: the IC50 against CDK9/CyclinT1 was less than 200 nM; on CDK2/cyclin A1 [1], less than 1000 nM; on CDK2/cyclin A, less than 1000 nM; at CDK2/cyclin E1, less than 200 nM; on CDK2/cyclin A1 [2], less than 200 nM.

For `FCCN[C@H]1CC[C@H](Nc2nc(-c3c(F)cccc3F)nc3c(Cl)cnn23)CC1` [Example #126, (1r,4r)-N1-(8-chloro-2-(2,6-difluorophenyl)pyrazolo[1,5-a][1,3,5]triazin-4-yl)-N4-(2-fluoroethyl)cyclohexane-1,4-diamine], the IC50 was less than 20 nM against CDK9/CyclinT1; less than 200 nM at CDK2/cyclin A1 [1]; less than 200 nM at CDK2/cyclin A; less than 200 nM on CDK2/cyclin E1; less than 200 nM on CDK2/cyclin A1 [2].

For `FCCCN[C@H]1CC[C@H](Nc2nc(-c3c(F)cccc3F)nc3c(Cl)cnn23)CC1` [Example #128, (1r,4r)-N1-(8-chloro-2-(2,6-difluorophenyl)pyrazolo[1,5-a][1,3,5]triazin-4-yl)-N4-(3-fluoropropyl)cyclohexane-1,4-diamine], the IC50 against CDK9/CyclinT1 was less than 20 nM; at CDK2/cyclin A1 [1], less than 200 nM; at CDK2/cyclin A, less than 1000 nM; at CDK2/cyclin E1, less than 200 nM; on CDK2/cyclin A1 [2] it was less than 200 nM.

The molecule `Cc1cc(C)c(CNc2nc(-c3c(F)cccc3F)nc3c(Cl)cnn23)cn1` [Example #145, 8-chloro-2-(2,6-difluorophenyl)-N-((4,6-dimethylpyridin-3-yl)methyl)pyrazolo[1,5-a][1,3,5]triazin-4-amine] came in with a half-inhibitory concentration (IC50) on CDK9/CyclinT1 of less than 20 nM.

On to `Fc1cccc(F)c1-c1nc(NCc2cccnc2)n2ncc(Cl)c2n1` [Example #146, 8-chloro-2-(2,6-difluorophenyl)-N-(pyridin-3-ylmethyl)pyrazolo[1,5-a][1,3,5]triazin-4-amine], for which the IC50 on CDK9/CyclinT1 was less than 20 nM.
